Measured values published in PubChem BioAssay AID248 (DTP/NCI, 2004).
Where “and” joins values, the source holds several entries; their conditions need not be identical. Equal entries are not always repeated. Inconclusive results and toxic doses are left out. No stated cut-off is given here; in the data, active means T/C of 150% or more; inactive means T/C below 125%.

Tested on: L1210 leukemia ip in BDF1 mice, survival T/C
Test: NCI In Vivo Anticancer Drug Screen. Data for tumor model L1210 Leukemia (intraperitoneal) in B6D2F1 (BDF1) mice
Settings: endpoint: mean survival time, higher = longer survival
Summary of the method: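 Tumor cells were implanted, animals were treated, and survival was followed. The result divides the treated measurement by the vehicle-control measurement.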

[1] = dose: 75.0 mg/kg/injection, schedule: Q01DX001 (ip), vehicle: saline
[2] = dose: 150.0 mg/kg/injection, schedule: Q01DX001 (ip), vehicle: saline
[3] = dose: 300.0 mg/kg/injection, schedule: Q01DX001 (ip), vehicle: saline
[4] = dose: 100.0 mg/kg/injection, schedule: Q04DX002 (ip), vehicle: Klucel (hydroxypropylcellulose) (HPC)
[5] = dose: 100.0 mg/kg/injection, schedule: Q01DX009 (ip), vehicle: saline with Tween-80
[6] = dose: 200.0 mg/kg/injection, schedule: Q01DX009 (ip), vehicle: saline with Tween-80
[7] = dose: 400.0 mg/kg/injection, schedule: Q01DX009 (ip), vehicle: saline with Tween-80
[8] = dose: 100.0 mg/kg/injection, schedule: Q01DX001 (ip), vehicle: Klucel (hydroxypropylcellulose) (HPC)
[9] = dose: 200.0 mg/kg/injection, schedule: Q01DX001 (ip), vehicle: Klucel (hydroxypropylcellulose) (HPC)
[10] = dose: 400.0 mg/kg/injection, schedule: Q01DX001 (ip), vehicle: Klucel (hydroxypropylcellulose) (HPC)
[11] = dose: 100.0 mg/kg/injection, schedule: Q04DX003 (ip), vehicle: saline with Tween-80
[12] = dose: 200.0 mg/kg/injection, schedule: Q04DX003 (ip), vehicle: saline with Tween-80
[13] = dose: 400.0 mg/kg/injection, schedule: Q04DX003 (ip), vehicle: saline with Tween-80
[14] = dose: 100.0 mg/kg/injection, schedule: Q01DX009 (ip), vehicle: Klucel (hydroxypropylcellulose) (HPC)
[15] = dose: 100.0 mg/kg/injection, schedule: Q01DX001 (ip), vehicle: saline
[16] = dose: 200.0 mg/kg/injection, schedule: Q01DX001 (ip), vehicle: saline
[17] = dose: 400.0 mg/kg/injection, schedule: Q01DX001 (ip), vehicle: saline
[18] = dose: 100.0 mg/kg/injection, schedule: Q04DX003 (ip), vehicle: Klucel (hydroxypropylcellulose) (HPC)
[19] = dose: 200.0 mg/kg/injection, schedule: Q01DX009 (ip), vehicle: Klucel (hydroxypropylcellulose) (HPC)
[20] = dose: 200.0 mg/kg/injection, schedule: Q04DX002 (ip), vehicle: Klucel (hydroxypropylcellulose) (HPC)
[21] = dose: 200.0 mg/kg/injection, schedule: Q04DX003 (ip), vehicle: Klucel (hydroxypropylcellulose) (HPC)
[22] = dose: 400.0 mg/kg/injection, schedule: Q01DX009 (ip), vehicle: Klucel (hydroxypropylcellulose) (HPC)
[23] = dose: 400.0 mg/kg/injection, schedule: Q04DX002 (ip), vehicle: Klucel (hydroxypropylcellulose) (HPC)
[24] = dose: 400.0 mg/kg/injection, schedule: Q04DX003 (ip), vehicle: Klucel (hydroxypropylcellulose) (HPC)
[25] = dose: 50.0 mg/kg/injection, schedule: Q01DX009 (ip), vehicle: saline with Tween-80

Measured: T/C

Cc1ccc(Nc2cc(Cl)nc(N)n2)cc1Cl
inactive: dose: 100.0 mg/kg/injection, schedule: Q01DX Z (ip), vehicle: methylcellulose (MC) 97 % of control | dose: 200.0 mg/kg/injection, schedule: Q01DX Z (ip), vehicle: methylcellulose (MC) 100 % of control

II
inactive: dose: 12.0 mg/kg/injection, schedule: Q01DX009 (ip), vehicle: acetone 96 % of control | dose: 25.0 mg/kg/injection, schedule: Q01DX009 (ip), vehicle: acetone 93 % of control | dose: 50.0 mg/kg/injection, schedule: Q01DX009 (ip), vehicle: acetone 106 % of control

CCOP(=O)(OCC)C1c2cc(Cl)ccc2-c2c(Cl)cc(Cl)cc21 (stereo not drawn)
inactive: dose: 15.0 mg/kg/injection, schedule: Q01DX001 (ip), vehicle: saline 103 % of control | dose: 30.0 mg/kg/injection, schedule: Q01DX001 (ip), vehicle: saline 98 % of control | dose: 60.0 mg/kg/injection, schedule: Q01DX001 (ip), vehicle: saline 103 % of control

CCOC(=O)c1ccc2c(ccc[n+]2C)c1
inactive: [1] 97 % of control | dose: 75.0 mg/kg/injection, schedule: Q04DX003 (ip), vehicle: saline 107 % of control | [2] 97 % of control | dose: 150.0 mg/kg/injection, schedule: Q04DX003 (ip), vehicle: saline 105 % of control | [3] 95 % of control

O=C1NC2C3C=CC(C3)C12 (stereo not drawn)
inactive: dose: 25.0 mg/kg/injection, schedule: Q04DX002 (ip), vehicle: Klucel (hydroxypropylcellulose) (HPC) 114 % of control | dose: 50.0 mg/kg/injection, schedule: Q04DX002 (ip), vehicle: Klucel (hydroxypropylcellulose) (HPC) 93 % of control | [4] 119 % of control and 86 % of control

O=C(O)CCCN1C(=O)CCC1=O
inactive: dose: 100.0 mg/kg/injection, schedule: Q04DX003 (ip), vehicle: saline 97 % of control | dose: 200.0 mg/kg/injection, schedule: Q04DX003 (ip), vehicle: saline 95 % of control | dose: 400.0 mg/kg/injection, schedule: Q04DX003 (ip), vehicle: saline 106 % of control

O=C(CCl)NCC1(c2ccc(Cl)cc2)SC(CNC(=O)CCl)(c2ccc(Cl)cc2)S1 (stereo not drawn)
inactive: [5] 97 % of control | [6] 92 % of control | [7] 104 % of control

CN1CN(c2ccccc2)C2(CCN(CC3Cc4cc(F)ccc4O3)CC2)C1=O (stereo not drawn)
inactive: [8] 101 % of control | [9] 98 % of control | [10] 96 % of control

CC=NC(C[S-])C(=O)O.CC=NC(C[S-])C(=O)O.[Fe+2] (stereo not drawn)
inactive: [5] 92 % of control | [11] 94 % of control | [6] 91 % of control | [12] 93 % of control | [7] 87 % of control | [13] 88 % of control

Nc1ncnc(N)c1NC(=O)C1CCCCC1
inactive: dose: 25.0 mg/kg/injection, schedule: Q01DX001 (ip), vehicle: Klucel (hydroxypropylcellulose) (HPC) 101 % of control | dose: 50.0 mg/kg/injection, schedule: Q01DX001 (ip), vehicle: Klucel (hydroxypropylcellulose) (HPC) 101 % of control

COC(=O)NC1CC(O)C(CO)C1 (stereo not drawn)
inactive: dose: 50.0 mg/kg/injection, schedule: Q01DX009 (ip), vehicle: Klucel (hydroxypropylcellulose) (HPC) 94 % of control | [14] 97 % of control

CC1CCCCN1C(=O)Nc1ccccc1C(F)(F)F (stereo not drawn)
inactive: dose: 100.0 mg/kg/injection, schedule: Q01DX001 (ip), vehicle: saline with Tween-80 96 % of control and 97 % of control | [5] 100 % of control and 119 % of control | dose: 100.0 mg/kg/injection, schedule: Q04DX002 (ip), vehicle: saline with Tween-80 96 % of control and 86 % of control | [11] 99 % of control and 91 % of control | dose: 200.0 mg/kg/injection, schedule: Q01DX001 (ip), vehicle: saline with Tween-80 97 % of control and 100 % of control | [6] 106 % of control and 107 % of control | dose: 200.0 mg/kg/injection, schedule: Q04DX002 (ip), vehicle: saline with Tween-80 96 % of control and 99 % of control | [12] 95 % of control and 101 % of control | dose: 400.0 mg/kg/injection, schedule: Q01DX001 (ip), vehicle: saline with Tween-80 100 % of control and 90 % of control | [7] 93 % of control and 116 % of control | dose: 400.0 mg/kg/injection, schedule: Q04DX002 (ip), vehicle: saline with Tween-80 95 % of control and 100 % of control | [13] 91 % of control

O=C1CC(CC(=O)C2CCCC2=O)CC(=O)N1 (stereo not drawn)
inactive: [15] 101 % of control | [16] 100 % of control | [17] 108 % of control

COc1ccc([N+](=O)[O-])cc1NC(=O)NCc1cccnc1
inactive: [8] 91 % of control | [14] 93 % of control and 91 % of control | [4] 87 % of control and 92 % of control | [18] 103 % of control | [9] 93 % of control | [19] 93 % of control and 98 % of control | [20] 97 % of control and 87 % of control | [21] 100 % of control | [10] 90 % of control | [22] 93 % of control and 95 % of control | [23] 97 % of control and 92 % of control | [24] 101 % of control

CN(C)CCCNc1nc(-c2cccc(C(Cl)(Cl)Cl)c2)nc(C(Cl)(Cl)Cl)n1
inactive: [1] 95 % of control | [2] 101 % of control | [3] 91 % of control

Cc1cc(O)ccc1C1=[N+](C)CC(C)S1 (stereo not drawn)
inactive: dose: 12.5 mg/kg/injection, schedule: Q04DX002 (ip), vehicle: saline 103 % of control | dose: 25.0 mg/kg/injection, schedule: Q04DX002 (ip), vehicle: saline 100 % of control | dose: 50.0 mg/kg/injection, schedule: Q04DX002 (ip), vehicle: saline 103 % of control

Oc1cc[c]([Hg][Cl])cc1
inactive: dose: 12.5 mg/kg/injection, schedule: Q04DX003 (ip), vehicle: Klucel (hydroxypropylcellulose) (HPC) 105 % of control | dose: 25.0 mg/kg/injection, schedule: Q04DX003 (ip), vehicle: Klucel (hydroxypropylcellulose) (HPC) 111 % of control | dose: 50.0 mg/kg/injection, schedule: Q04DX003 (ip), vehicle: Klucel (hydroxypropylcellulose) (HPC) 99 % of control

O=C(COc1ccc(Cl)cc1Cl)NCc1ccc(Cl)cc1
inactive: [14] 91 % of control | [18] 112 % of control | [19] 96 % of control | [21] 96 % of control | [22] 94 % of control | [24] 95 % of control

COCc1ccc([N+](=O)[O-])o1
inactive: [15] 101 % of control | [16] 103 % of control | [17] 101 % of control

CCOC(=O)C1CC(C)c2[nH]c3ccccc3c21 (stereo not drawn)
inactive: [4] 110 % of control | [20] 107 % of control | [23] 89 % of control

[B-][N+](CC)(CC)c1ccccc1
inactive: [25] 92 % of control | [5] 95 % of control | [6] 92 % of control

C=CCCCCCCCCC(=O)NCCCN1CCOCC1
inactive: [25] 103 % of control | [5] 103 % of control
